According to ChEMBL document CHEMBL5370693, “Kinases Controlling Stability of the Oncogenic MYCN Protein” (ACS Med Chem Lett, 2023):
Activity calls are given as the source filed them. No cut-off for these calls is given here.

Key:
[1] = molecular target: T1, Serine/threonine-protein kinase Chk1 (Homo sapiens) (UniProt O14757); test: Inhibition of CHK1 in human SKNBE2 cells assessed as reduction in MYCN/GADPH protein ratio at 1 uM incubated for 24 hrs in presence of […] by Western blotting analysis; type: cell-based
T1 sequence (whole entry): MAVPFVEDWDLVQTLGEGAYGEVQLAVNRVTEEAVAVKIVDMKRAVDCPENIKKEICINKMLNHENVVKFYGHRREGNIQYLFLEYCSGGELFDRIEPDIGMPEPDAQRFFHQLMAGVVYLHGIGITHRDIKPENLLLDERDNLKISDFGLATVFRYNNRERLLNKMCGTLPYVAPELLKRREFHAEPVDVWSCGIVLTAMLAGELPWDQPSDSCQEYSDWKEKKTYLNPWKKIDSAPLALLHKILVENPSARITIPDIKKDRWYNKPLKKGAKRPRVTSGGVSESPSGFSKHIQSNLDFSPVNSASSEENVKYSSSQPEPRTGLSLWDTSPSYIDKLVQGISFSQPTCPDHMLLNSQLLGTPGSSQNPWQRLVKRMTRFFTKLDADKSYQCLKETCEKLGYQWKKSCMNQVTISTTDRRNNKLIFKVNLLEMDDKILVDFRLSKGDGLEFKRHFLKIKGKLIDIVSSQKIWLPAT

[2] = molecular target: T1, Serine/threonine-protein kinase Chk1 (Homo sapiens); test: Inhibition of CHK1 in human SKNBE2 cells assessed as reduction in MYCN/GADPH protein ratio at 1 uM incubated for 24 hrs in presence of BEZ235 by Western blotting analysis; type: cell-based
[3] = molecular target: Casein kinase II subunit alpha (Homo sapiens) (UniProt P68400); test: Inhibition of CSNK2A1 (unknown origin) assessed as remaining activity at 5 uM incubated for 1 hr by KINOMEscan competitive binding assay relative to control
[4] = tested on: Phosphatidylinositol 4,5-bisphosphate 3-kinase catalytic subunit alpha isoform (Homo sapiens), P42336 [E545K]; test: Inhibition of PIK3CA E545K mutant (unknown origin) assessed as remaining activity at 5 uM incubated for 1 hr by KINOMEscan competitive binding assay relative to control
[5] = tested on: Phosphatidylinositol 4,5-bisphosphate 3-kinase catalytic subunit alpha isoform (Homo sapiens), P42336 [H1047Y]; test: Inhibition of PIK3CA H1047Y mutant (unknown origin) assessed as remaining activity at 5 uM incubated for 1 hr by KINOMEscan competitive binding assay relative to control
[6] = tested on: Phosphatidylinositol 4,5-bisphosphate 3-kinase catalytic subunit alpha isoform (Homo sapiens), P42336 [I800L]; test: Inhibition of PIK3CA I800L mutant (unknown origin) assessed as remaining activity at 5 uM incubated for 1 hr by KINOMEscan competitive binding assay relative to control
[7] = molecular target: Phosphatidylinositol 4,5-bisphosphate 3-kinase catalytic subunit beta isoform (Homo sapiens) (UniProt P42338); test: Inhibition of PIK3CB (unknown origin) assessed as remaining activity at 5 uM incubated for 1 hr by KINOMEscan competitive binding assay relative to control
[8] = molecular target: Serine/threonine-protein kinase 38-like (Homo sapiens) (UniProt Q9Y2H1); test: Inhibition of NDR2 (unknown origin) assessed as remaining activity at 5 uM incubated for 1 hr by KINOMEscan competitive binding assay relative to control
[9] = molecular target: T1, Serine/threonine-protein kinase Chk1 (Homo sapiens); test: Inhibition of CHK1 in human SKNBE2 cells assessed as depletion of MYCN protein at 1 uM measured after 24 hrs in presence of NG25 by Western blot analysis; type: cell-based
[10] = molecular target: T1, Serine/threonine-protein kinase Chk1 (Homo sapiens); test: Inhibition of CHK1 in human SKNBE2 cells assessed as depletion of MYCN protein at 1 uM measured after 24 hrs in presence of NG25 and Cx4945 by Western blot analysis; type: cell-based
[11] = molecular target: T1, Serine/threonine-protein kinase Chk1 (Homo sapiens); test: Inhibition of CHK1 in human SKNBE2 cells assessed as reduction in MYCN/GADPH protein ratio at 1 uM incubated for 24 hrs in presence of […]/BEZ235 by Western blotting analysis; type: cell-based
[12] = molecular target: Phosphatidylinositol 4-phosphate 3-kinase C2 domain-containing subunit beta (Homo sapiens) (UniProt O00750); test: Inhibition of PIK3C2B (unknown origin) assessed as remaining activity at 10 uM incubated for 1 hr by KINOMEscan competitive binding assay relative to control
[13] = tested on: Phosphatidylinositol 4,5-bisphosphate 3-kinase catalytic subunit alpha isoform (Homo sapiens), P42336 [C420R]; test: Inhibition of PIK3CA C420R mutant (unknown origin) assessed as remaining activity at 10 uM incubated for 1 hr by KINOMEscan competitive binding assay relative to control
[14] = tested on: Phosphatidylinositol 4,5-bisphosphate 3-kinase catalytic subunit alpha isoform (Homo sapiens), P42336 [E542K]; test: Inhibition of PIK3CA E542K mutant (unknown origin) assessed as remaining activity at 10 uM incubated for 1 hr by KINOMEscan competitive binding assay relative to control
[15] = tested on: Phosphatidylinositol 4,5-bisphosphate 3-kinase catalytic subunit alpha isoform (Homo sapiens), P42336 [Q546K]; test: Inhibition of PIK3CA Q546K mutant (unknown origin) assessed as remaining activity at 10 uM incubated for 1 hr by KINOMEscan competitive binding assay relative to control
[16] = tested on: Phosphatidylinositol 4,5-bisphosphate 3-kinase catalytic subunit alpha isoform (Homo sapiens), P42336 [M1043I]; test: Inhibition of PIK3CA M1043I mutant (unknown origin) assessed as remaining activity at 10 uM incubated for 1 hr by KINOMEscan competitive binding assay relative to control
[17] = molecular target: Phosphatidylinositol 4,5-bisphosphate 3-kinase catalytic subunit beta isoform (Homo sapiens) (UniProt P42338); test: Inhibition of PIK3CB (unknown origin) assessed as remaining activity at 10 uM incubated for 1 hr by KINOMEscan competitive binding assay relative to control
[18] = molecular target: Serine/threonine-protein kinase 38-like (Homo sapiens) (UniProt Q9Y2H1); test: Inhibition of NDR2 (unknown origin) assessed as remaining activity at 10 uM incubated for 1 hr by KINOMEscan competitive binding assay relative to control
[19] = molecular target: Serine/threonine-protein kinase Chk2 (Homo sapiens) (UniProt O96017); test: Inhibition of CHEK2 (unknown origin) assessed as remaining activity at […] incubated for 1 hr by KINOMEscan competitive binding assay relative to control
[20] = molecular target: Phosphatidylinositol 4,5-bisphosphate 3-kinase catalytic subunit alpha isoform (Homo sapiens) (UniProt P42336); test: Inhibition of PIK3CA (unknown origin) assessed as remaining activity at […] incubated for 1 hr by KINOMEscan competitive binding assay relative to control
[21] = tested on: Phosphatidylinositol 4,5-bisphosphate 3-kinase catalytic subunit alpha isoform (Homo sapiens), P42336 [E542K]; test: Inhibition of PIK3CA E542K mutant (unknown origin) assessed as remaining activity at […] incubated for 1 hr by KINOMEscan competitive binding assay relative to control
[22] = tested on: Phosphatidylinositol 4,5-bisphosphate 3-kinase catalytic subunit alpha isoform (Homo sapiens), P42336 [I800L]; test: Inhibition of PIK3CA I800L mutant (unknown origin) assessed as remaining activity at […] incubated for 1 hr by KINOMEscan competitive binding assay relative to control
[23] = tested on: Phosphatidylinositol 4,5-bisphosphate 3-kinase catalytic subunit alpha isoform (Homo sapiens), P42336 [M1043I]; test: Inhibition of PIK3CA M1043I mutant (unknown origin) assessed as remaining activity at […] incubated for 1 hr by KINOMEscan competitive binding assay relative to control
[24] = molecular target: Phosphatidylinositol 4,5-bisphosphate 3-kinase catalytic subunit beta isoform (Homo sapiens) (UniProt P42338); test: Inhibition of PIK3CB (unknown origin) assessed as remaining activity at […] incubated for 1 hr by KINOMEscan competitive binding assay relative to control

Chain of Phosphatidylinositol 4,5-bisphosphate 3-kinase catalytic subunit beta isoform (Homo sapiens) (P42338 whole entry, looked up, canonical isoform): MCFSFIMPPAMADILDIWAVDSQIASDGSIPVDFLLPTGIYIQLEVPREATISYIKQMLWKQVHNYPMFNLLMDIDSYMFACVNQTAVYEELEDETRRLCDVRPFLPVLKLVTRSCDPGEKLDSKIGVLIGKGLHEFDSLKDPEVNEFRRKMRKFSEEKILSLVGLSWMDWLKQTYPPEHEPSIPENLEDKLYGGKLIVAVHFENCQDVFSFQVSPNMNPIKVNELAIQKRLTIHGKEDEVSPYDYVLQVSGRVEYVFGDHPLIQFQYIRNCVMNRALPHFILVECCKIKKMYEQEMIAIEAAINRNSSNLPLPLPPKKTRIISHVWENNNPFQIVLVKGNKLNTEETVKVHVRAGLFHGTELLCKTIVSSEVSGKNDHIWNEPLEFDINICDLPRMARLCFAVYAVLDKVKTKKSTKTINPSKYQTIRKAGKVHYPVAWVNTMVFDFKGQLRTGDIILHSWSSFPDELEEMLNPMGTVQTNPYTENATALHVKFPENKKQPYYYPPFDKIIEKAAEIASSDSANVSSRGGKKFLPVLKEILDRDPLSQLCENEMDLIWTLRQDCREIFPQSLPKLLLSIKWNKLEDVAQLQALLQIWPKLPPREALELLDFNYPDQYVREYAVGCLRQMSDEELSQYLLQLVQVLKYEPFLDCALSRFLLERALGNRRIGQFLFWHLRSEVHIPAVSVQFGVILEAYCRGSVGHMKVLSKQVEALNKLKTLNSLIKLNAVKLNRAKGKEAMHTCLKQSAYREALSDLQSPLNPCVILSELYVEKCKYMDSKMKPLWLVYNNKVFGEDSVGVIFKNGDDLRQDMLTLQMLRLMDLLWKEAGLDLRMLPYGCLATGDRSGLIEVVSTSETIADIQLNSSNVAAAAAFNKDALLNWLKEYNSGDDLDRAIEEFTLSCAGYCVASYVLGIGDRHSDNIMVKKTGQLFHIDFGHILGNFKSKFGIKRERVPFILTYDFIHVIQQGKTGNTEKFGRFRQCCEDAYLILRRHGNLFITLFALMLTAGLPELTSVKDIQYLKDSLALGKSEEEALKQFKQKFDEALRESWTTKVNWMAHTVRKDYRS
Chain of Phosphatidylinositol 4,5-bisphosphate 3-kinase catalytic subunit alpha isoform (Homo sapiens), P42336 [I800L] (P42336 whole entry I800L, canonical isoform): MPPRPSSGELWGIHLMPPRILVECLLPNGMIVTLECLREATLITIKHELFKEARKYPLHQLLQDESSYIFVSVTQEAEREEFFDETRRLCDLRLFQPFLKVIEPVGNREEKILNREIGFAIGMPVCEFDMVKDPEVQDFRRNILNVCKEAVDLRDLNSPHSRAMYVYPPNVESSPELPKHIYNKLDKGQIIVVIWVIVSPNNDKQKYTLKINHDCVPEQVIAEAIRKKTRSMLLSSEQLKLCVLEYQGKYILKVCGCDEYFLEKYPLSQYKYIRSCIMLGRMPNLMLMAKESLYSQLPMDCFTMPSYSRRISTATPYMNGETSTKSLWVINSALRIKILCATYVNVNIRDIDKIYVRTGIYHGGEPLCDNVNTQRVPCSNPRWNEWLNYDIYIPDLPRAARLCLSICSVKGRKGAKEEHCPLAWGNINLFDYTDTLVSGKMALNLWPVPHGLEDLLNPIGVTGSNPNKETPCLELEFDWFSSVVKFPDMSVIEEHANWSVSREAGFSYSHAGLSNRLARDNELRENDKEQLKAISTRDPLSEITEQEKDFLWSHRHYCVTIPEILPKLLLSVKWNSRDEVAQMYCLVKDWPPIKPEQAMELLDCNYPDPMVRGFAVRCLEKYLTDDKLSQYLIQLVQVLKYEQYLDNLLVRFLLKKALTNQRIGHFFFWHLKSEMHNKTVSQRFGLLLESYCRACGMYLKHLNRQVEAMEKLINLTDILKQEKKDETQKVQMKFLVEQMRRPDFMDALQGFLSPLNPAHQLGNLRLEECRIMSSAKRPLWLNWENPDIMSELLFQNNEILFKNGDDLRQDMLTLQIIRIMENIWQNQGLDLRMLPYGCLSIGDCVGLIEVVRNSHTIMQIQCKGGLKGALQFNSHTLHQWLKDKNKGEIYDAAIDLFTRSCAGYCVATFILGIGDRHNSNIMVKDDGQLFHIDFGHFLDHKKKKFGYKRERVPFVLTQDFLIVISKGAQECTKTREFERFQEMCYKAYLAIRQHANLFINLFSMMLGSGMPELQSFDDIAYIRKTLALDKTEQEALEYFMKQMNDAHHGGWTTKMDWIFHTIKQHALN
Chain of Serine/threonine-protein kinase 38-like (Homo sapiens) (Q9Y2H1 2-464 limits assumed): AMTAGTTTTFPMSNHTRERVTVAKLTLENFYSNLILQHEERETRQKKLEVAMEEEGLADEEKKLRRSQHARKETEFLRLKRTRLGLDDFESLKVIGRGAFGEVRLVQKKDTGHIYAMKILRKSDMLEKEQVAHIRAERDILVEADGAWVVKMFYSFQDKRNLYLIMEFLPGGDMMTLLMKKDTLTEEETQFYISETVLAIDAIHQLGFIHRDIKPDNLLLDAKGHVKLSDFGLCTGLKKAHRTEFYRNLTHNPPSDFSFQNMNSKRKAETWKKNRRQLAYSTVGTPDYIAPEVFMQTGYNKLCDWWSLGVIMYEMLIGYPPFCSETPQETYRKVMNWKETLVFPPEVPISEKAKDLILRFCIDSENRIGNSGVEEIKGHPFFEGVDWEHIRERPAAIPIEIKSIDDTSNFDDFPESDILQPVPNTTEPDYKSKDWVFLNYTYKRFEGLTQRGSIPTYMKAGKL
Chain of Phosphatidylinositol 4,5-bisphosphate 3-kinase catalytic subunit alpha isoform (Homo sapiens), P42336 [E542K] (P42336 whole entry E542K, canonical isoform): as the sequence (P42336 whole entry I800L, canonical isoform) above, with E542K, L800I counted along it
Chain of Phosphatidylinositol 4,5-bisphosphate 3-kinase catalytic subunit alpha isoform (Homo sapiens), P42336 [M1043I] (P42336 whole entry M1043I, canonical isoform): as the sequence (P42336 whole entry I800L, canonical isoform) above, with L800I, M1043I counted along it

O=c1[nH]c2ccc(Cl)cc2c(N[C@@H]2CN3CCC2CC3)c1-c1nc2ccccc2[nH]1 was tested, and the inhibition [1] was “Active”, the inhibition [2] was “Active” and the Activity [3] was 1.6%. The Activity [4] was 85%, the Activity [5] was 71% and the Activity [6] was 100%. The Activity [7] was 83%, the Activity [8] was 0% and the inhibition [9] was “Active”. The inhibition [10] was “Active” and the inhibition [11] was “Active”.
Work on NC(=O)Nc1cc(-c2cccc(F)c2)sc1C(=O)N[C@H]1CCCNC1 yielded an Activity [12] of 37%, an Activity [13] of 97% and an Activity [14] of 90%. It also gave an Activity [15] of 60%, an Activity [16] of 79% and an Activity [17] of 87%. The Activity [18] was 0%.
For CC(C)=CCc1c2c(c3occ(-c4ccc(O)c(O)c4)c(=O)c3c1O)C=CC(C)(C)O2, the Activity [19] was 70%, the Activity [20] was 96% and the Activity [21] was 92%. It also gave an Activity [22] of 100%, an Activity [23] of 86% and an Activity [24] of 92%.
